Measured values from patent publication US10080812B2, “Radioactive iodine labeled pyrido[1,2-a]benzoimidazole derivative compound” (priority 2015, dated 2018).
Values joined by “and” are separate entries in the source; they are usually repeats but may differ in a detail not shown here. Identical values can stand only once.

What was measured:
[1] = Log P value measurement (1-octanol/phosphate buffer); format: physicochemical; conditions: 1-octanol / 0.1 mol/L phosphate buffer solution pH 7.4
Procedure: Each of [^125I]BIP-1 to -4 (125 kBq) obtained by the method shown in Example 9 was added to a centrifuge tube containing 1-octanol (3.00 mL) and a 0.1 mol/L phosphate buffer solution (pH 7.4, 3.00 mL), vortexed for 2 minutes, and then centrifuged at 4,000×g for 10 minutes. 500 μL of a solution was collected from each layer, and the radioactivity thereof was then measured. A partition coefficient was determined from the 1-octanol/phosphate buffer solution ratio of radioactivity.

tau = experiment: In vitro autoradiography using autopsied brain tissue sections of an Alzheimer's disease patient (temporal lobe); format: binding, human; conditions: for radioactivity accumulation in the brain gray matter of the temporal lobe / binding affinity for tau: AD brain section, 370 kBq/mL, 2 h room temperature; for nonspecific binding to the brain white matter: AD brain sections; for autoradiography images compared with [125I]BIP-1 and [125I]BIP-2: temporal and frontal lobe sections
Procedure: (§1) Autopsied brain tissue sections of an Alzheimer's disease (AD) patient (sections from a frontal lobe site and a temporal lobe site, 6 μm) were used, which were provided from Graduate School of Medicine, Kyoto University. Deparaffinization treatment was performed by washing with xylene (15 min×2), ethanol (1 min×2), a 90 vol % aqueous ethanol solution (1 min×1), an 80 vol % aqueous ethanol solution (1 min×1), a 70 vol % aqueous ethanol solution (1 min×1), and purified water (2.5 min×2). A 10 vol % or 50 vol % aqueous ethanol solution of each of [^125I]BIP-1 to -4 (370 kBq/mL) obtained by the method shown in Example 9 was added thereto, and the tissue sections were incubated at room temperature for 2 hours. The tissue sections were washed with a 50 vol % aqueous ethanol solution (2 hr×1), then exposed to an imaging plate (BAS-SR2025 manufactured by Fujifilm Corp.) for 12 hours, and analyzed using a bioimaging analyzer (bioimaging analyzer BAS-5000 manufactured by Fujifilm Corp.). Multi Gauge manufactured by Fujifilm Corp. was used in quantitative analysis.
Senile plaque (SP) and neurofibrillary tangle (NFT) were stained using sections near the brain sections used in autoradiography. An anti-Aβ1-42 monoclonal antibody (BC05, manufactured by Wako Pure Chemical Industries, Ltd.) was used as a primary antibody in the immunostaining of SP, and an anti-phosphorylated tau monoclonal antibody (AT8, manufactured by Thermo Fisher Scientific Inc.) was used as an antibody in the immunostaining of NFT. Deparaffinization treatment was performed by washing with xylene (15 min×2), ethanol (1 min×2), a 90 vol % aqueous ethanol solution (1 min×1), an 80 vol % aqueous ethanol solution (1 min×1), a 70 vol % aqueous ethanol solution (1 min×1), and purified water (2.5 min×2). The antigens were retrieved by autoclaving (15 min) in a 0.01 mol/L citrate buffer solution (pH 6.0) and formic acid treatment (5 min). The tissue sections were washed with running water (5 min) and then washed with PBS-Tween 20 (2 min×1). The tissue sections were reacted with primary antibody solutions at room temperature for 1 hour and then washed with PBS-Tween 20 (5 min×3). The tissue sections were reacted with Histofine Simple Stain MAX-PO (MULTI) (manufactured by Nichirei Biosciences Inc.) at room temperature for 30 minutes and then washed with PBS-Tween 20 (3 min×3) and TBS (5 min×1). Finally, the tissue sections were reacted with a DAB solution at room temperature for 1 minute. The tissue sections were washed with distilled water (1 min×1) to terminate the reaction. The brain tissue sections were mounted on slides and then observed under a microscope (BZ-9000 manufactured by Keyence Corporation).

[2] = Comparison of intracerebral kinetics in mice; format: in vivo, ddY male mice; conditions: for radioactivity in the brain: i.v. tail vein; for Brain2 min/60 min: ratio of radioactivity in the brain between 2 and 60 min after administration
Procedure: (§2) Each of [^125I]BIP-1 to -4 obtained by the method shown in Example 9 was diluted with saline containing 10 vol % ethanol and 0.1 vol % Tween 80. Each of [^125I]BIP-1 to -4 was administered to a group of 5-week-old ddY male mice (26 to 28 g; each group involved 5 mice) from the tail veins thereof at 25.0 to 37.5 kBq (100 μL) per mouse. After 2, 10, 30, or 60 minutes, the mice were slaughtered. After blood collection, the brains were taken out, and their weights and radioactivity were measured. As for [^125I]BIP-3, the principal organs were also excised, and their weights and radioactivity were measured.

amyloid β protein (Aβ) = target: T1, amyloid β protein (Aβ) (Homo sapiens, UniProt P05067); experiment: In vitro autoradiography using autopsied brain tissue sections of an Alzheimer's disease patient (frontal lobe); format: binding; conditions: for radioactivity accumulation in the frontal lobe section / binding affinity for the amyloid β protein (Aβ): AD brain section, 370 kBq/mL, 2 h room temperature
T1 construct: from tissue; host or cells: autopsied AD patient brain, frontal lobe, 6 µm paraffin sections (Graduate School of Medicine, Kyoto University)
T1 sequence (P05067 672-713 limits assumed): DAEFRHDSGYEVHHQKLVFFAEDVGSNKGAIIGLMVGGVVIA
Procedure: as §1
Senile plaque (SP) and neurofibrillary tangle (NFT) were stained using sections near the brain sections used in autoradiography. An anti-Aβ1-42 monoclonal antibody (BC05, manufactured by Wako Pure Chemical Industries, Ltd.) was used as a primary antibody in the immunostaining of SP, and an anti-phosphorylated tau monoclonal antibody (AT8, manufactured by Thermo Fisher Scientific Inc.) was used as an antibody in the immunostaining of NFT. Deparaffinization treatment was performed by washing with xylene (15 min×2), ethanol (1 min×2), a 90 vol % aqueous ethanol solution (1 min×1), an 80 vol % aqueous ethanol solution (1 min×1), a 70 vol % aqueous ethanol solution (1 min×1), and purified water (2.5 min×2). The antigens were retrieved by autoclaving (15 min) in a 0.01 mol/L citrate buffer solution (pH 6.0) and formic acid treatment (5 min). The tissue sections were washed with running water (5 min) and then washed with PBS-Tween 20 (2 min×1). […]

[3] = In vivo radioactivity distribution experiment; design: species or system ddY male mice; conditions: mouse; for radioactivity in Blood / radioactivity in Brain / radioactivity in Heart / radioactivity in Intestine / radioactivity in Kidneys / radioactivity in Liver / radioactivity in Lungs / radioactivity in Pancreas / radioactivity in Spleen / radioactivity in Stomach / radioactivity in Thyroid gland: i.v.
Procedure: as §2

[4] = Stability evaluation in plasma; format: in vitro ADME, ddY mouse; conditions: 37° C., 1 hour
Procedure: Blood was collected from the heart of a ddY mouse (5 weeks old, body weight: 25 to 28 g) under anesthesia with isoflurane. The collected blood was fractionated by centrifugation at 4000×g for 10 minutes to recover a supernatant. [^125I]BIP-3 obtained by the method shown in Example 9 (188 kBq, 10.0 μL, ethanol solution) and the mouse plasma sample (200 μL) were mixed. The mixture was incubated at 37° C. for 1 hour, and acetonitrile (400 μL) was added thereto, followed by fractionation by centrifugation at 4000×g for 10 minutes. The supernatant was recovered, treated with Cosmonice Filter (S) (0.45 μm, 4 mm) (Nacalai Tesque, Inc.), and then analyzed by reverse phase HPLC. Analytical conditions for HPLC were the same as the conditions used in Example 9.

[5] = mouse, 2 min after administration
[6] = mouse, 10 min after administration
[7] = mouse, 30 min after administration
[8] = mouse, 60 min after administration

[125I]c1ccc(-c2ccn3c(c2)nc2ccccc23)cc1 [[^125I]BIP-2, 3-(4-[^125I]iodophenyl)benzo[4,5]imidazo[1,2-a]pyridine]
Log P [1]: 2.61
radioactivity accumulation in the brain gray matter of the temporal lobe / binding affinity for tau (tau; temporal lobe): have binding affinity for tau
nonspecific binding to the brain white matter (tau): low nonspecific binding
radioactivity in the brain [2, 5]: 2.73 % ID/g
radioactivity in the brain [2, 6]: 1.73 % ID/g
radioactivity in the brain [2, 7]: 0.57 % ID/g
radioactivity in the brain [2, 8]: 0.26 % ID/g
Brain2 min/60 min [2]: 10.4
radioactivity accumulation in the frontal lobe section / binding affinity for the amyloid β protein (Aβ) (amyloid β protein (Aβ)): low

[125I]c1ccc2c(c1)nc1ccccn12 [[^125I]BIP-3, 7-[^125I]iodobenzo[4,5]imidazo[1,2-a]pyridine]
Log P [1]: 3.22
autoradiography images compared with [125I]BIP-1 and [125I]BIP-2 (tau): images equivalent to [^125I]BIP-1 and [^125I]BIP-2
radioactivity accumulation to the temporal lobe (quantitative analysis) (tau; temporal lobe sites e-j, compared with frontal lobe): higher radioactivity accumulation
radioactivity accumulation on temporal lobe section compared with immunostaining of tau and Aβ (tau; temporal lobe, AT8 and BC05 immunostaining): consistent with the accumulation of tau
radioactivity in Blood ([3]; 2 min): 5.20 (0.44) % ID/g
radioactivity in Brain ([3]; 2 min): 4.74 (0.57) % ID/g
radioactivity in Heart ([3]; 2 min): 7.66 (1.21) % ID/g
radioactivity in Intestine ([3]; 2 min): 5.41 (0.62) % ID/g
radioactivity in Kidneys ([3]; 2 min): 23.7 % ID/g and 23.7 (2.44) % ID/g
radioactivity in Liver ([3]; 2 min): 19.9 % ID/g and 19.9 (1.39) % ID/g
radioactivity in Lungs ([3]; 2 min): 29.7 (4.63) % ID/g
radioactivity in Pancreas ([3]; 2 min): 5.36 (0.91) % ID/g
radioactivity in Spleen ([3]; 2 min): 4.76 (0.39) % ID/g
radioactivity in Stomach ([3]; 2 min): 2.70 (0.56) % ID
radioactivity in Thyroid gland ([3]; 2 min): 0.09 (0.03) % ID
radioactivity in Blood ([3]; 10 min): 2.94 (0.41) % ID/g
radioactivity in Brain ([3]; 10 min): 0.65 (0.07) % ID/g
radioactivity in Heart ([3]; 10 min): 1.66 (0.75) % ID/g
radioactivity in Intestine ([3]; 10 min): 11.6 (2.43) % ID/g
radioactivity in Kidneys ([3]; 10 min): 12.2 (1.55) % ID/g
radioactivity in Liver ([3]; 10 min): 14.4 (2.14) % ID/g
radioactivity in Lungs ([3]; 10 min): 6.32 (1.16) % ID/g
radioactivity in Pancreas ([3]; 10 min): 1.49 (0.47) % ID/g
radioactivity in Spleen ([3]; 10 min): 1.34 (0.28) % ID/g
radioactivity in Stomach ([3]; 10 min): 6.73 (1.64) % ID
radioactivity in Thyroid gland ([3]; 10 min): 0.06 (0.02) % ID
radioactivity in Blood ([3]; 30 min): 1.30 (0.16) % ID/g
radioactivity in Brain ([3]; 30 min): 0.12 (0.01) % ID/g
radioactivity in Heart ([3]; 30 min): 0.97 (0.26) % ID/g
radioactivity in Intestine ([3]; 30 min): 21.4 (5.69) % ID/g
radioactivity in Kidneys ([3]; 30 min): 10.3 (5.11) % ID/g
radioactivity in Liver ([3]; 30 min): 6.29 (0.45) % ID/g
radioactivity in Lungs ([3]; 30 min): 1.91 (0.29) % ID/g
radioactivity in Pancreas ([3]; 30 min): 0.78 (0.47) % ID/g
radioactivity in Spleen ([3]; 30 min): 0.58 (0.16) % ID/g
radioactivity in Stomach ([3]; 30 min): 5.34 (1.26) % ID
radioactivity in Thyroid gland ([3]; 30 min): 0.13 (0.03) % ID
radioactivity in Blood ([3]; 60 min): 1.11 (0.53) % ID/g
radioactivity in Brain ([3]; 60 min): 0.06 (0.01) % ID/g
radioactivity in Heart ([3]; 60 min): 0.83 (0.24) % ID/g
radioactivity in Intestine ([3]; 60 min): 29.4 % ID/g and 29.4 (7.49) % ID/g
radioactivity in Kidneys ([3]; 60 min): 8.99 (4.47) % ID/g
radioactivity in Liver ([3]; 60 min): 5.25 (0.95) % ID/g
radioactivity in Lungs ([3]; 60 min): 1.45 (0.23) % ID/g
radioactivity in Pancreas ([3]; 60 min): 0.75 (0.30) % ID/g
radioactivity in Spleen ([3]; 60 min): 0.71 (0.11) % ID/g
radioactivity in Stomach ([3]; 60 min): 4.42 (2.43) % ID
radioactivity in Thyroid gland ([3]; 60 min): 0.22 % ID and 0.22 (0.03) % ID
deiodination in living body (from thyroid gland uptake) ([3]; up to 60 min after administration): marked deiodination does not occur
radioactivity in the brain [2, 5]: 4.74 % ID/g
radioactivity in the brain [2, 6]: 0.65 % ID/g
radioactivity in the brain [2, 7]: 0.12 % ID/g
radioactivity in the brain [2, 8]: 0.06 % ID/g
intracerebral kinetics ([2]; mouse, i.v., 2-60 min): favorable intracerebral kinetics
Brain2 min/60 min [2]: 79.0
radioactivity accumulation to the frontal lobe (quantitative analysis) (amyloid β protein (Aβ); frontal lobe sites a-d, only Aβ accumulates): low radioactivity accumulation
stability in mouse plasma (reverse phase HPLC) [4]: only the peak of the parent compound was detected

[125I]c1ccn2c(c1)nc1ccccc12 [[^125I]BIP-4, 3-[^125I]iodobenzo[4,5]imidazo[1,2-a]pyridine]
Log P [1]: 2.35
autoradiography images compared with [125I]BIP-1 and [125I]BIP-2 (tau): images equivalent to [^125I]BIP-1 and [^125I]BIP-2
radioactivity in the brain [2, 5]: 2.37 % ID/g
radioactivity in the brain [2, 6]: 0.36 % ID/g
radioactivity in the brain [2, 7]: 0.09 % ID/g
radioactivity in the brain [2, 8]: 0.06 % ID/g
Brain2 min/60 min [2]: 39.5

[125I]c1ccc2c(c1)nc1cc(-c3ccccc3)ccn12 [[^125I]BIP-1, 7-[^125I]iodo-3-phenylbenzo[4,5]imidazo[1,2-a]pyridine]
Log P [1]: 2.64
radioactivity accumulation in the brain gray matter of the temporal lobe / binding affinity for tau (tau; temporal lobe): have binding affinity for tau
nonspecific binding to the brain white matter (tau): low nonspecific binding
radioactivity in the brain [2, 5]: 3.51 % ID/g
radioactivity in the brain [2, 6]: 2.14 % ID/g
radioactivity in the brain [2, 7]: 0.65 % ID/g
radioactivity in the brain [2, 8]: 0.23 % ID/g
Brain2 min/60 min [2]: 15.3
radioactivity accumulation in the frontal lobe section / binding affinity for the amyloid β protein (Aβ) (amyloid β protein (Aβ)): low
